{
  "source": "patent US20250059184A1",
  "about": "(priority 2021, published 2025)",
  "key": {"5HT2A sensor [1]": {"system": "5HT2A sensor", "settings": "cited from earlier work"}, "5HT2A sensor [2]": {"system": "5HT2A sensor", "settings": "cited from earlier work", "remark": "listed apart in the source"}, "mice": {"system": "mice", "settings": "mouse, in vivo; cited from earlier work"}, "5-HT2A [3]": {"target": "T1, 5-HT2A (Homo sapiens, UniProt P28223)", "T1 sequence (P28223 whole entry)": "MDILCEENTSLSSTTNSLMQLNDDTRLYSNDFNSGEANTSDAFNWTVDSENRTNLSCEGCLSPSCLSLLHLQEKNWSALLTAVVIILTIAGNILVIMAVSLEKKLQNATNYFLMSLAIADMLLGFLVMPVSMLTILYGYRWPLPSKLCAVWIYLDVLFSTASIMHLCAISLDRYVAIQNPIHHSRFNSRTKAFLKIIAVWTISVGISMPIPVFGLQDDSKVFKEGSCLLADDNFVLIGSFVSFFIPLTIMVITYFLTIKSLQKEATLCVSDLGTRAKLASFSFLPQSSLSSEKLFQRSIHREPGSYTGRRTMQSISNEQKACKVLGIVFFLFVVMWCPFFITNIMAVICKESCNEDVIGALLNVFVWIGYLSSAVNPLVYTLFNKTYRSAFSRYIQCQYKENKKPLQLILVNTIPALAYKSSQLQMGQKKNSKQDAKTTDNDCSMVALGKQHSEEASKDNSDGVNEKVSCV", "assay": "Serotonin 5-HT2A in vitro cellular IPOne agonism assay (HTRF)", "type": "cell-based", "parameters": "host or cells: CHO-K1", "settings": "CHO-K1 cells, agonist mode", "description": "(§1) Serotonin 5-HT2A In Vitro Cellular IPOne Agonism Assay. The 5-HT2A IPOne HTRF assay was performed at Epics Therapeutics S.A. (Belgium, FAST-0505I) using conventional methods. Briefly, CHO-K1 cells expressing human recombinant 5-HT2A receptor grown to mid-log phase in culture media without antibiotics were detached with PBS-EDTA, centrifuged, and resuspended in medium without antibiotics buffer. 20,000 cells were distributed in a 96 well plate and incubated overnight at 37° C. with 5% Co2.\nFor agonist testing, the medium was removed and 20 μl of assay buffer plus 20 μl of test compound or reference agonist were added in each well. The plate was incubated for 60 min. at 37° C. with 5% CO2.\n(§2) After addition of the lysis buffer containing IP1-d2 and anti-IP1 cryptate detection reagents, plates were incubated 1-hour at room temperature, and fluorescence ratios were measured according to the manufacturer specification, with the HTRF kit."}, "5-HT2A [4]": {"target": "T1, 5-HT2A", "assay": "Serotonin 5-HT2A in vitro cellular IPOne antagonism assay (HTRF)", "type": "cell-based", "parameters": "host or cells: CHO-K1", "settings": "CHO-K1 cells, reference agonist α-Me-5HT; read-out: 5-HT2A IPOne Antagonist Activity", "description": "as §1, with “Antagonism” for “Agonism”, “FAST-O0505) in antagonism mode” for “FAST-0505I)”\nFor antagonist testing, a reference agonist α-Me-5HT was added and fluorescence signal monitored for several minutes, followed by addition of 20 μl of assay buffer plus 20 μl of test compound or reference antagonist ketanserin, in each well. The plate was incubated for 60 min. at 37° C. with 5% CO2.\nas §2"}, "5-HT2A [5]": {"target": "T1, 5-HT2A", "assay": "Serotonin 5-HT2A in vitro radioligand binding competition assay ([3H]-DOI)", "parameters": "purchased Epics Therapeutics S.A. (Belgium) FAST-0505B", "settings": "[3H]-DOI radiotracer, membrane extracts", "description": "Serotonin 5-HT2A In Vitro Radioligand Binding Competition Assay. The 5-HT2A radioligand binding competition assay was performed at Epics Therapeutics S.A. (Belgium, FAST-0505B) using conventional methods. Briefly, competition binding was performed in duplicate in the wells of a 96 well plate (Master Block, Greiner, 786201) containing binding buffer (optimized for each receptor), membrane extracts (amount of protein/well optimized for each receptor), radiotracer [^3H]-DOI (final concentration optimized for each receptor) and test compound. Nonspecific binding was determined by co-incubation with 200-fold excess of cold competitor. The samples were incubated in a final volume of 0.1 ml at a temperature and for a duration optimized for each receptor and then filtered over filter plates. Filters were washed six times with 0.5 ml of ice-cold washing buffer (optimized for each receptor) and 50 μl of Microscint 20 (Packard) were added in each well. The plates were incubated 15 min on an orbital shaker and then counted with a TopCount™ for 1 min/well."}},
  "data": [
    {"molecule": "6-MeO-DMT [Compound 6-MeO-DMT]", "values": [
      {"measurement": "activation of the 5HT2A sensor assay in agonist mode", "setting": "5HT2A sensor [1]", "value": "do not activate the 5HT2A sensor assay in agonist mode"},
      {"measurement": "competition with 5-HT in the 5HT2A sensor assay in antagonist mode", "setting": "5HT2A sensor [2]", "value": "compete off 5-HT"},
      {"measurement": "head-twitch response (HTR)", "setting": "mice", "value": "does not produce a HTR"}
    ]},
    {"molecule": "L-MDMA", "values": [
      {"measurement": "activation of the 5HT2A sensor assay in agonist mode", "setting": "5HT2A sensor [1]", "value": "do not activate the 5HT2A sensor assay in agonist mode"}
    ]},
    {"molecule": "R-MDMA", "values": [
      {"measurement": "activation of the 5HT2A sensor assay in agonist mode", "setting": "5HT2A sensor [1]", "value": "do not activate the 5HT2A sensor assay in agonist mode"}
    ]},
    {"molecule": "6-F-DET [Compound 6-F-DET]", "values": [
      {"measurement": "activation of the 5HT2A sensor assay in agonist mode", "setting": "5HT2A sensor [1]", "value": "do not activate the 5HT2A sensor assay in agonist mode"},
      {"measurement": "competition with 5-HT in the 5HT2A sensor assay in antagonist mode", "setting": "5HT2A sensor [2]", "value": "can compete with 5HT binding to 5HT2A"}
    ]},
    {"molecule": "CN(C)CCc1c[nH]c2ccccc12", "note": "[DMT, N,N-dimethyltryptamine]", "values": [
      {"measurement": "activation of the 5HT2A sensor assay in agonist mode", "setting": "5HT2A sensor [1]", "value": "activate the 5HT2A sensor assay in agonist mode"}
    ]},
    {"molecule": "Cc1ccn2c(CC(C)N)ncc2c1", "note": "(centres unmarked) [Compound 9, 1-(7-methylimidazo[1,5-a]pyridin-3-yl)propan-2-amine]", "values": [
      {"measurement": "EC50", "setting": "5-HT2A [3]", "value": "1000 to 10000", "unit": "nM"},
      {"measurement": "IC50", "setting": "5-HT2A [4]", "value": "> 10000", "unit": "nM"},
      {"measurement": "IC50", "setting": "5-HT2A [5]", "value": "1000 to 10000", "unit": "nM"}
    ]},
    {"molecule": "BOL148", "values": [
      {"measurement": "activation of the 5HT2A sensor assay in agonist mode", "setting": "5HT2A sensor [1]", "value": "do not activate the 5HT2A sensor assay in agonist mode"},
      {"measurement": "competition with 5-HT in the 5HT2A sensor assay in antagonist mode", "setting": "5HT2A sensor [2]", "value": "can compete with 5HT binding to 5HT2A"}
    ]},
    {"molecule": "C[C@H](Cc1ncc2ccccn12)N(C)C", "note": "[Compound 30, (R)-1-(imidazo[1,5-a]pyridin-3-yl)-N,N-dimethylpropan-2-amine]", "values": [
      {"measurement": "EC50", "setting": "5-HT2A [3]", "value": "> 10000", "unit": "nM"},
      {"measurement": "IC50", "setting": "5-HT2A [4]", "value": "1000 to 10000", "unit": "nM"},
      {"measurement": "IC50", "setting": "5-HT2A [5]", "value": "101 to 1000", "unit": "nM"}
    ]},
    {"molecule": "CN(C)CCc1ncc2ccccn12", "note": "[Compound 14, 2-(Imidazo[1,5-a]pyridin-3-yl)-N,N-dimethylethan-1-amine]", "values": [
      {"measurement": "EC50", "setting": "5-HT2A [3]", "value": "> 10000", "unit": "nM"},
      {"measurement": "IC50", "setting": "5-HT2A [4]", "value": "1000 to 10000", "unit": "nM"},
      {"measurement": "IC50", "setting": "5-HT2A [5]", "value": "1000 to 10000", "unit": "nM"}
    ]},
    {"molecule": "CC(C)(N)Cc1ncc2ccccn12", "note": "[Compound 6, 1-(imidazo [1,5-a]pyridin-3-yl)-2-methylpropan-2-amine]", "values": [
      {"measurement": "EC50", "setting": "5-HT2A [3]", "value": "> 10000", "unit": "nM"},
      {"measurement": "IC50", "setting": "5-HT2A [4]", "value": "101 to 1000", "unit": "nM"},
      {"measurement": "IC50", "setting": "5-HT2A [5]", "value": "1000 to 10000", "unit": "nM"}
    ]},
    {"molecule": "Cc1cccn2c(CC(C)N)ncc12", "note": "(centres unmarked) [Compound 8, 1-(8-methylimidazo[1,5-a]pyridin-3-yl)propan-2-amine]", "values": [
      {"measurement": "EC50", "setting": "5-HT2A [3]", "value": "1000 to 10000", "unit": "nM"},
      {"measurement": "IC50", "setting": "5-HT2A [4]", "value": "> 10000", "unit": "nM"},
      {"measurement": "IC50", "setting": "5-HT2A [5]", "value": "1000 to 10000", "unit": "nM"}
    ]},
    {"molecule": "5-MeO-DMT [Compound 5-MeO-DMT]", "values": [
      {"measurement": "activation of the 5HT2A sensor assay in agonist mode", "setting": "5HT2A sensor [1]", "value": "activate the 5HT2A sensor assay in agonist mode"},
      {"measurement": "head-twitch response (HTR)", "setting": "mice", "value": "robust, dose-dependent head-twitch response"}
    ]},
    {"molecule": "CN(C)CCc1ncn2ccccc12", "note": "[Compound 43, 2-(imidazo [1,5-a]pyridin-1-yl)-N,N-dimethylethan-1-amine]", "values": [
      {"measurement": "EC50", "setting": "5-HT2A [3]", "value": "> 10000", "unit": "nM"},
      {"measurement": "IC50", "setting": "5-HT2A [4]", "value": "101 to 1000", "unit": "nM"},
      {"measurement": "IC50", "setting": "5-HT2A [5]", "value": "1000 to 10000", "unit": "nM"}
    ]},
    {"molecule": "O=C(c1ccc(F)cc1)C1CCN(CCn2c(=O)[nH]c3ccccc3c2=O)CC1", "note": "[Ketanserin]", "values": [
      {"measurement": "activation of the 5HT2A sensor assay in agonist mode", "setting": "5HT2A sensor [1]", "value": "do not activate the 5HT2A sensor assay in agonist mode"},
      {"measurement": "competition with 5-HT in the 5HT2A sensor assay in antagonist mode", "setting": "5HT2A sensor [2]", "value": "can compete with 5HT binding to 5HT2A"}
    ]},
    {"molecule": "c1ccn2c(C3CCNC3)ncc2c1", "note": "(centres unmarked) [Compound 12, 3-(Pyrrolidin-3-yl)imidazo[1,5-a]pyridine]", "values": [
      {"measurement": "EC50", "setting": "5-HT2A [3]", "value": "> 10000", "unit": "nM"},
      {"measurement": "IC50", "setting": "5-HT2A [4]", "value": "1000 to 10000", "unit": "nM"},
      {"measurement": "IC50", "setting": "5-HT2A [5]", "value": "1000 to 10000", "unit": "nM"}
    ]},
    {"molecule": "c1ccn2c(CC3CCCN3)ncc2c1", "note": "(centres unmarked) [Compound 13, 3-(Pyrrolidin-2-ylmethyl)imidazo[1,5-a]pyridine]", "values": [
      {"measurement": "EC50", "setting": "5-HT2A [3]", "value": "> 10000", "unit": "nM"},
      {"measurement": "IC50", "setting": "5-HT2A [4]", "value": "1000 to 10000", "unit": "nM"},
      {"measurement": "IC50", "setting": "5-HT2A [5]", "value": "1000 to 10000", "unit": "nM"}
    ]},
    {"molecule": "CN1CCC(c2ncc3ccccn23)C1", "note": "(centres unmarked) [Compound 32, 3-(1-methylpyrrolidin-3-yl)imidazo[1,5-a]pyridine]", "values": [
      {"measurement": "EC50", "setting": "5-HT2A [3]", "value": "> 10000", "unit": "nM"},
      {"measurement": "IC50", "setting": "5-HT2A [4]", "value": "1000 to 10000", "unit": "nM"},
      {"measurement": "IC50", "setting": "5-HT2A [5]", "value": "101 to 1000", "unit": "nM"}
    ]},
    {"molecule": "CC(Cc1ncc2cc(F)ccn12)N(C)C", "note": "(centres unmarked) [Compound 17, 1-(7-fluoroimidazo[1,5-a]pyridin-3-yl)-N,N-dimethylpropan-2-amine]", "values": [
      {"measurement": "EC50", "setting": "5-HT2A [3]", "value": "> 10000", "unit": "nM"},
      {"measurement": "IC50", "setting": "5-HT2A [4]", "value": "101 to 1000", "unit": "nM"},
      {"measurement": "IC50", "setting": "5-HT2A [5]", "value": "101 to 1000", "unit": "nM"}
    ]}
  ]
}
